Values quoted from earlier work as cited in US20010006974A1, “COMBINATION THERAPY FOR LYMPHOPROLIFERATIVE DISEASES” (priority 1999, published 2001).

Tests used:
[1] = system: refractory/relapsed B-CLL; conditions: refractory/relapsed B-CLL patients
[2] = system: refractory lymphomas; conditions: monotherapy; 5 mg/m^2 for 3 consecutive day every 3 weeks
[3] = system: bcl-2; conditions: correlated with theophylline-induced apoptosis
[4] = system: alkylator-refractory CLL
[5] = system: cAMP; conditions: correlated with theophylline-induced apoptosis

SMILES | response rate [1] [%] | response rate [2] [%] | bcl-2 regulation [3] | activity as a single agent [4] | intracellular level of cAMP [5]
OC[C@H]1O[C@@H](n2cnc3c2NC=NC[C@H]3O)C[C@@H]1O [pentostatin, 2′-deoxycoformycin] | 30 | 32 | – | – | –
Cn1c(=O)c2[nH]cnc2n(C)c1=O [theophylline] | – | – | down-regulation | no activity | increased
